Active and inactive are the calls of the source. The rule behind the calls is not given here.
Assays:
Sus scrofa [1] = organism: Sus scrofa; experiment: Inhibition of pig lung ACE at 10 pmol/L assessed as enzyme restrain rate; set-up: scale not given: the % may be the effect or the level left
Sus scrofa [2] = organism: Sus scrofa; experiment: Inhibition of pig lung ACE at 10 umol/L assessed as enzyme restrain rate; set-up: scale not given: the % may be the effect or the level left
Sus scrofa [3] = organism: Sus scrofa; experiment: Inhibition of pig lung ACE at 100 pmol/L assessed as enzyme restrain rate; set-up: scale not given: the % may be the effect or the level left
Sus scrofa [4] = organism: Sus scrofa; experiment: Inhibition of pig lung ACE at 1 pmol/L assessed as enzyme restrain rate; set-up: scale not given: the % may be the effect or the level left
Sus scrofa [5] = organism: Sus scrofa; experiment: Inhibition of pig lung ACE at 10 nmol/L assessed as enzyme restrain rate; set-up: scale not given: the % may be the effect or the level left
Sus scrofa [6] = organism: Sus scrofa; experiment: Inhibition of pig lung ACE at 100 nmol/L assessed as enzyme restrain rate; set-up: scale not given: the % may be the effect or the level left
Sus scrofa [7] = organism: Sus scrofa; experiment: Inhibition of pig lung ACE at 1 umol/L assessed as enzyme restrain rate; set-up: scale not given: the % may be the effect or the level left
Sus scrofa [8] = organism: Sus scrofa; experiment: Inhibition of pig lung ACE at 100 umol/L assessed as enzyme restrain rate; set-up: scale not given: the % may be the effect or the level left
Rattus norvegicus [9] = experiment: Acute antihypertensive activity in two-kidney one-clip renal hypertensive rat assessed as reduction in diastolic arterial pressure at 100 mg/kg/day; type: functional, organism-based
Rattus norvegicus [10] = experiment: Acute antihypertensive activity in two-kidney one-clip renal hypertensive rat assessed as reduction in systolic arterial pressure at 100 mg/kg/day; type: functional, organism-based

| Activity (Sus scrofa [1]) [%] | Activity (Sus scrofa [2]) [%] | Activity (Sus scrofa [3]) [%] | Activity (Sus scrofa [4]) [%] | Activity (Sus scrofa [5]) [%] | Activity (Sus scrofa [6]) [%] | Activity (Sus scrofa [7]) [%] | Activity (Sus scrofa [8]) [%] | SMILES | Activity (Rattus norvegicus [9]) | Activity (Rattus norvegicus [10]) |
| --- | --- | --- | --- | --- | --- | --- | --- | --- | --- | --- |
| 47 | 94 | 48 | 42 | 96 | 97 | 95 | 94 | C[C@H](CS)C(=O)N1CCC[C@H]1C(=O)O | – | – |
| 41 | 61 | 44 | 34 | 87 | 74 | 61 | 77 | CC1OCc2c(ccc(O)c2O)C1=O (racemic) | Active | Active |

Source: ChEMBL document CHEMBL1153307, “Total synthesis and antihypertensive activity of (+/-)7,8-dihydroxy-3-methyl-isochromanone-4” (Bioorg Med Chem Lett, 2009)
